US10081632B2, “Substituted tetrahydropyrido[3′,2′:4,5]pyrrolo[1,2-α]pyrazine-2-carboxamides as RSK inhibitors” (Phoenix Molecular Designs, priority 2016, dated 2018)
“Also recorded” adds a separate entry of the source.

How the values were obtained:
[1] = Solubility assessment, 20 mg/ml solution; assay type: physicochemical; conditions: 100 mM in DMSO diluted in DMEM growth media to 20 mg/ml
Procedure: Solubility is an important property for therapeutic drug candidates. Poor solubility can lead to low bioavailability resulting in suboptimal drug delivery. It can also prevent the evaluation of test agents in animals because the concentration(s) needed to achieve the desired effect cannot be achieved to poor solubility. For solubility assessments, small molecules targeting RSK were compared. For these assessments, 100 mM solutions of the compounds dissolved in DMSO were diluted in DMEM growth media (Life Technologies) supplemented with fetal bovine serum (FBS, Life Technologies) and 100 units/ml penicillin and 100 units/ml streptomycin (Life Technologies) to make 20 mg/ml solutions. Once diluted, the solutions were vortexed and examined for the formation of precipitates. […] For Compound 26, a 100 mM solution of the compound dissolved in DMSO was diluted in phosphate buffered saline (Life Technologies) to make a 20 mg/ml solution. The stock of […] was chosen because this is the upper end of what would be required to dose mice for a range of studies including MTD, PK, PD and efficacy. The pH of this solution was determined to be 2, as previously described. […] At high concentrations some RSK inhibitors were highly soluble while others were not. Compound 0 is (R)—N-(1-benzyl-1H-pyrazol-4-yl)-9-methyl-6-oxo-6,7,8,9-tetrahydropyrido[3′,2′:4,5]pyrrolo[1,2-a]pyrazine-2-carboxamide. Compound 0 was not soluble, whereas Compounds 18, 20, 21, 25 and 26 were soluble under the same conditions (Table 5).

MDA-MB-231 cells [2] = assay: Soft agar growth inhibition assay; assay type: cell-based; conditions: Homo sapiens, MDA-MB-231; growth in soft agar (SA); read-out: MDA-MB-231 IC50 (SA)
CD34+ cells = assay: Colony forming unit hematopoietic stem cell assay; assay type: cell-based, human
Procedure: The hematopoietic colony forming cell assay was conducted based on a protocol outlined by StemCell Technologies. […] Following the addition of CD34^+ cells isolated from human cord blood or peripheral blood (StemCell Technologies) at a final concentration of 5×10^2 cells per dish, the tubes were vortexed and allowed to stand for 5 minutes at room temperature. Next, the MethoCult mixtures were dispensed into 35 mm dishes (Corning Incorporated) through blunt end needles (StemCell Technologies) and 5 ml syringes (BD Biosciences) at a volume of 1.1 ml per dish. The medium was evenly distributed across the surface of each dish by gentle tilting and rotation. The dishes were then placed in a 100 mm culture dish (Grenier Bio-One) containing additional 35 mm dishes with sterile water to maintain humidity. […] The number of myeloid and erythroid derived colonies in both the treated and control dishes were counted and compared.

4T1 cells [3] = assay: Monolayer growth inhibition, Alamar blue assay; assay type: cell-based; conditions: Mus musculus; 4T1 (TNBC), 5 days, single dose on day 1
Source text: (§1) In all instances a single dose was given on day 1 of the experiment.

HCC1143 cells [4] = assay: Monolayer growth inhibition, Alamar blue assay; assay type: cell-based; conditions: Homo sapiens; HCC1143 (TNBC), 5 days, single dose on day 1
Source text: as §1

HCC1937 cells [5] = assay: Monolayer growth inhibition, Alamar blue assay; assay type: cell-based; conditions: Homo sapiens; HCC1937 (TNBC, BRCA Mutant), 5 days, single dose on day 1
Source text: as §1

JIMT-1 cells [6] = assay: Monolayer growth inhibition, Alamar blue assay; assay type: cell-based; conditions: Homo sapiens; JIMT-1 (HER2), 5 days, single dose on day 1
Source text: as §1

MDA-MB-231 cells [7] = assay: Monolayer growth inhibition, Alamar blue assay; assay type: cell-based; conditions: Homo sapiens; MDA-MB-231 (TNBC), 5 days, single dose on day 1
Source text: as §1

MDA-MB-435 cells [8] = assay: Monolayer growth inhibition, Alamar blue assay; assay type: cell-based; conditions: Homo sapiens; MDA-MB-435 (Melanoma), 5 days, single dose on day 1
Source text: as §1

MDA-MB-468 cells [9] = assay: Monolayer growth inhibition, Alamar blue assay; assay type: cell-based; conditions: Homo sapiens; MDA-MB-468 (TNBC), 5 days, single dose on day 1
Source text: as §1

PC3 cells [10] = assay: Monolayer growth inhibition, Alamar blue assay; assay type: cell-based; conditions: Homo sapiens, PC-3; PC3 (Prostate), 5 days, single dose on day 1
Source text: as §1

SUM149 cells [11] = assay: Monolayer growth inhibition, Alamar blue assay; assay type: cell-based; conditions: Homo sapiens; SUM149 (TNBC, BRCA Mutant), 5 days, single dose on day 1
Source text: as §1

SUM149-PTXR cells [12] = assay: Monolayer growth inhibition, Alamar blue assay; assay type: cell-based, Human; conditions: Homo sapiens; SUM149-PTXR (TNBC, BRCA Mutant), 5 days, single dose on day 1
Source text: as §1

T47D cells [13] = assay: Monolayer growth inhibition, Alamar blue assay; assay type: cell-based, Human; conditions: Homo sapiens; T47D (ER/PR), 5 days, single dose on day 1
Source text: as §1

All cell lines [14] = assay: Monolayer growth inhibition, Alamar blue assay, range over all cell lines; assay type: cell-based; conditions: 120 h; range of IC50 over all cell lines of the table; read-out: IC50 Values - Alamar Blue (5 Days), Range, All
Source text: as §1

HCC1937 cells [15] = assay: Monolayer growth inhibition, crystal violet assay; assay type: cell-based; conditions: Homo sapiens; HCC1937 (TNBC, BRCA Mutant), 5 days, single dose on day 1
Source text: (§2) In all instances a single dose was given on day 1 of the experiment. […] Complete (100%) growth suppression was achievable with several of the compounds in multiple different cell lines.

JIMT-1 cells [16] = assay: Monolayer growth inhibition, crystal violet assay; assay type: cell-based; conditions: Homo sapiens; JIMT-1 (HER2), 5 days, single dose on day 1
Source text: as §2

MDA-MB-468 cells [17] = assay: Monolayer growth inhibition, crystal violet assay; assay type: cell-based; conditions: Homo sapiens; MDA-MB-468 (TNBC), 5 days, single dose on day 1
Source text: as §2

T47D cells [18] = assay: Monolayer growth inhibition, crystal violet assay; assay type: cell-based; conditions: Homo sapiens; T47D (ER/PR), 5 days, single dose on day 1
Source text: as §2

4T1 cells [19] = assay: Monolayer growth inhibition, crystal violet assay; assay type: cell-based; conditions: Mus musculus; 4T1 (TNBC), 5 days, single dose on day 1
Source text: as §1

HCC1143 cells [20] = assay: Monolayer growth inhibition, crystal violet assay; assay type: cell-based; conditions: Homo sapiens; HCC1143 (TNBC), 5 days, single dose on day 1
Source text: as §1

MDA-MB-231 cells [21] = assay: Monolayer growth inhibition, crystal violet assay; assay type: cell-based; conditions: Homo sapiens; MDA-MB-231 (TNBC), 5 days, single dose on day 1
Source text: as §1

MDA-MB-435 cells [22] = assay: Monolayer growth inhibition, crystal violet assay; assay type: cell-based; conditions: Homo sapiens; MDA-MB-435 (Melanoma), 5 days, single dose on day 1
Source text: as §1

PC3 cells [23] = assay: Monolayer growth inhibition, crystal violet assay; assay type: cell-based; conditions: Homo sapiens, PC-3; PC3 (Prostate), 5 days, single dose on day 1
Source text: as §1

SUM149 cells [24] = assay: Monolayer growth inhibition, crystal violet assay; assay type: cell-based; conditions: Homo sapiens; SUM149 (TNBC, BRCA Mutant), 5 days, single dose on day 1
Source text: as §1

SUM149-PTXR cells [25] = assay: Monolayer growth inhibition, crystal violet assay; assay type: cell-based; conditions: Homo sapiens; SUM149-PTXR (TNBC, BRCA Mutant), 5 days, single dose on day 1
Source text: as §1

All cell lines [26] = assay: Monolayer growth inhibition, crystal violet assay, range over all cell lines; assay type: cell-based; conditions: 120 h; range of IC50 over all cell lines of the table; read-out: IC50 Values - Crystal Violet (5 Days), Range, All
Source text: as §2

Row | IC50 (4T1 cells [3]) [µM] | IC50 (HCC1143 cells [4]) [µM] | IC50 (HCC1937 cells [5]) [µM] | IC50 (MDA-MB-231 cells [7]) [µM] | IC50 (MDA-MB-435 cells [8]) [µM] | IC50 (MDA-MB-468 cells [9]) [µM] | IC50 (PC3 cells [10]) [µM] | IC50 (T47D cells [13]) [µM] | IC50 (HCC1937 cells [15]) [µM] | IC50 (MDA-MB-468 cells [17]) [µM] | IC50 (T47D cells [18]) [µM] | IC50 (4T1 cells [19]) [µM] | IC50 (HCC1143 cells [20]) [µM] | IC50 (MDA-MB-231 cells [21]) [µM] | IC50 (MDA-MB-435 cells [22]) [µM] | IC50 (PC3 cells [23]) [µM] | Compound | IC50 (JIMT-1 cells [6]) [µM] | IC50 (SUM149 cells [11]) [µM] | IC50 (SUM149-PTXR cells [12]) [µM] | IC50 (JIMT-1 cells [16]) [µM] | further results
1 | – | – | – | – | – | – | – | – | – | – | – | – | – | – | – | – | C[C@@H]1CNC(=O)c2cc3ccc(C(=O)Nc4cnn(Cc5ccccc5)c4)nc3n21 [Compound 0, (R)—N-(1-benzyl-1H-pyrazol-4-yl)-9-methyl-6-oxo-6,7,8,9-tetrahydropyrido[3′,2′:4,5]pyrrolo[1,2-a]pyrazine-2-carboxamide, reference compound] | – | – | – | – | Solubility, 20 mg/ml Solution [1]: not soluble; also recorded: poor or nonexistent solubility; also recorded: Precipitate; IC50 (MDA-MB-231 cells [2]): 200 nM; IC50 (CD34+ cells; Homo sapiens, Hematopoietic stem cell, CD34+ cells from peripheral blood, read-out: CD34+ (PB) IC50): 10 µM; Therapeutic Window (CD34+ cells; ratio IC50 against CD34+ cells and MDA-MB-231 cells (SA)): 50X
2 | 20.6 ± 2.5 | 11.5 ± 3.6 | 16.6 ± 11.5 | 25.6 ± 1.5 | 10.5 ± 2.2 | 14.7 ± 4.1 | 17.1 ± 8.7 | 13.5 ± 4.6 | 19.9 ± 8.7 | 7.4 ± 1 | 7.7 ± 1.5 | 15.8 ± 4.8 | 13.8 ± 4.3 | 17.2 ± 1.9 | 10.3 ± 3.5 | 14.9 ± 6.6 | C[C@@H]1CNC(=O)c2cc3ccc(NC(=O)c4cnn(Cc5cccc(N)c5)c4)nc3n21 [Compound 19, (R)-1-(3-aminobenzyl)-N-(9-methyl-6-oxo-6,7,8,9-tetrahydropyrido[3′,2′:4,5]pyrrolo[1,2-a]pyrazin-2-yl)-1H-pyrazole-4-carboxamide] | 37.3 ± 9 | 15.8 ± 6.4 | 14.1 ± 4.3 | 34 ± 12.8 | IC50 (All cell lines [14]): 10.5 to 37.3 µM; IC50 (SUM149 cells [24]): 11.1 ± 3.9 µM; IC50 (SUM149-PTXR cells [25]): 13 ± 1.3 µM; IC50 (All cell lines [26]): 7.4 to 34 µM
3 | 48.5 ± 2.6 | > 50 | > 50 | > 50 | 24.6 ± 10.3 | > 50 | 44.9 ± 8.8 | 48.1 ± 3.3 | > 50 | 37.3 ± 2.3 | 30.1 ± 3.3 | 39.5 ± 9.4 | > 50 | 45 ± 8.7 | 17.9 ± 7.3 | 45.6 ± 4.8 | C[C@@H]1CNC(=O)c2cc3ccc(NC(=O)c4cnn(Cc5ccccc5)c4)cc3n21 [Compound 11, (R)-1-benzyl-N-(4-methyl-1-oxo-1,2,3,4-tetrahydropyrazino[1,2-a]indol-7-yl)-1H-pyrazole-4-carboxamide] | > 50 | 36 ± 12.8 | 36.4 ± 11.9 | > 50 | IC50 (SUM149 cells [24]): 33.6 ± 14.5 µM; IC50 (SUM149-PTXR cells [25]): 44.6 ± 3.9 µM
